Columns and labels:
[1] = system: Stop-POST5 complex (RFC-dependent termination); assay: smTIRF assay of RFC-dependent peptide and tRNA release; type: biochemical, shrimp (Artemia salina)
Procedure: Immobilization of ribosome Stop-POST 5 complexes. PEGylated flow chambers were incubated in 0.5 mg/ml streptavidin for 5 mins and washed with Buffer 4. Biotinylated Stop-POST5 containing FK(atto647)VRQ-tRNA^Gln (Cy3) in the P-site, was formed at room temperature by incubating Stop-POST4, eEF1A, GTP, and Gln-(Cy3)tRNA^Gln for 5 mins and then injected into the streptavidin-coated slide chamber. After a 5 min incubation, excess unbound ribosome was flowed out. Then eRF1/eRF3±TRIDs was injected dynamically at 3 sec while recording. The injection dead time was subtracted for each particle.
Single-molecule fluorescence imaging. All sm-TIRF studies were carried out at 24° C. All dilutions, complex formation, and single-molecule imaging were carried out in Buffer 4 with an added enzymatic oxygen scavenging system of 2 mM protocatechuic acid (PCA), 50 nM protocatechunate 3,4 dioxygenase (PCD, Sigma Aldrich), 1 mM cyclooctatetraene (COT, Sigma Aldrich), 1 mM 4-nitrobenzyl alcohol (NBA, Sigma Aldrich), and 1.5 mM 6-hydroxy-2,5,7,8-tetramethyl-chromane-2-carboxylic acid (Trolox, Sigma-Aldrich) (Flis et al., Cell reports, 25(10), 2676-2688 (2018).
Image stacks were recorded at 100 ms frame rate on a custom-built objective-type total internal reflection fluorescence (TIRF) microscope based on a commercial inverted microscope (Eclipse Ti-E, Nikon) and capable of performing alternating-laser excitation (ALEX) between 532 nm and 640 nm laser beams using an acousto-optic tunable filter (AOTF, Chen et al., 2011). For the time-lapse experiment, timing of the movies, programmed into NIS-Elements (Nikon) microscope software, were recorded by illuminating the sample for 50-20 frames at 10 frames per s with 15 s or […] intervening dark intervals. Video recording was started and then eRF1/eRF3±TRIDs was injected from a triggered syringe pump at 3 sec while recording. The injection dead time was subtracted for each particle. Triggering of the shutters, AOTF, and pump was synchronized using LabView scripts driven from the camera exposure signal.
Data analysis. Collected movies were analyzed by a custom-made software program developed as an ImageJ plugin (Chen et al., Mol. Cell, 42, 367-377 (2011)), and further analyzed using Python. Distributions of peptide and tRNA dissociation times were fit to eq (5), using maximum likelihood estimation (Bevington and Robinson. Data Reduction and Error Analysis for the Physical Sciences. New York: McGraw-Hill, (2002); Woody et al., Biophys. J. 111, 273-282 (2016)), where P is the probability density.
smTIRF results using Atto(pep)-Cy-Stop-POST5 attached to surface-immobilized ribosomes. Although the distance between the two fluorophores is not close enough to produce FRET, fluorescent pairs could be identified by co-localization on the slide under alternating 532 nm and 640 nm total internal reflection fluorescence (TIRF) illumination. This permits near-simultaneous monitoring of the dynamics of peptide and P-site tRNA release from the Stop-POST5 complex following RFC binding.
To reduce photobleaching of each fluorophore, time-lapse movies were recorded with bursts of 20 or 50 frames at 100 ms frame intervals interleaved by 20 s intervals with the lasers shuttered. Total recording time for each trial was 20 min.
FIG. 8A and FIG. 8C show typical frame by frame recordings indicating a loss of signal for both labeled peptide and labeled tRNA after the addition of the RFC to Atto(pep)-Cy(tRNA)-Stop-POST5. Either peptide (a) or tRNA (b) can dissociate first, in approximately equal proportions. Photobleaching of Cy3-labeled tRNA and Atto647-labeled peptide in the absence of eRF1/eRF3 was much slower (FIG. 8E and FIG. 8F). Under the time lapse illumination employed, mean lifetimes for Atto647-peptide and Cy3-tRNA at 0.32 μM eRF1 and 2 μM eRF3 were each 2.45 min. […]

[2] = system: rRNA fragments I-IV of 80S-IRES; assay: RNaseH fragment assay, 80S-IRES; type: binding, shrimp (Artemia salina); conditions: PAL, 300 μM AzAt, alone or plus competing ligand named as label
Procedure: RNaseH Fragment Assay. Total RNA was prepared from the ^3H-AzAt photoaffinity labeled ribosome by phenol-chloroform extraction. RNA: DNA duplexes were formed by incubating total RNA (0.2 μM) with an oligonucleotide pair (1 μM of each, sequences shown Table 1), flanking a specific RNA region, in 22.8 μL of water at 95° C. for 2 min, followed by annealing at 50° C. for 30 s and quenching on ice. Six units (1.2 μL) of RNase H (NEB) and 6 μl of 5×RNase H Reaction Buffer were next added to the RNA: DNA duplex and incubated at 37° C. for 1 hour, followed by phenol-chloroform extraction of RNA. The digested RNA was separated on 12% TBE-Urea PAGE gel, and the target band along with the adjacent upper and bottom gels were sliced by a 2 mm gel cutter. The gel slices were crushed and the ^3H labeled rRNA fragment was extracted in water by vigorously shaking at 70° C. for 30 min, or by overnight extraction in elution buffer (0.3M sodium acetate, 0.25% SDS, 1 mM EDTA). The slurry was removed by centrifugation and the eluted ^3H labeled rRNA in the supernatant was quantified. The stoichiometry of AzAt photoincorporation was calculated based on a gel recovery yield of 20±2%, determined using an authentic sample of [^3H]-Gln-tRNA^Gln.
Testing the functional pertinence of AzAt photolabeling of 18S A1195, 28S-A3093, 28S-A2672, and 28S-2669. An RNAse H fragment assay was employed to determine whether the potential functionally significant sites identified by LASER-seq correspond to ataluren binding sites relevant for termination activity. In this assay, oligonucleotide hybridization, RNase H digestion and polyacrylamide gel electrophoresis (PAGE) were used to determine the stoichiometry of [^3H]-AzAt photoincorporation into the three rRNA fragments that together include the four nucleotides of interest: Fragment I, 18S-A1195; Fragment II, 26S-A3093; Fragment III, 26S-A2669 and 26S-A2672 (Table 5). The separate addition of four potential competitors of AzAt binding (eRF1 alone, the stably bound eRF1.eRF3.GDPNP complex, ataluren, and the ataluren-like TRID GJ072) was used to test how these affected such photoincorporation. These experiments, the results of which are summarized in Table 5, were performed at two different AzAt concentrations. eRF1 and eRF1.eRF3.GDPNP effects were measured using 300 μM AzAt, paralleling the LASER-Seq PAL experiments.

[3] = 0.081 μM RFC, 1000 μM ataluren added 4-25 s later, 24° C.

| Compound | mode of inhibition of RFC [1] | effect on CC value of peptide and tRNA lifetimes ([1]; 0.032 μM RFC and 1 mM ataluren, FIG. 10C) | rate constant for elimination of ataluren's inhibitory effect after RFC addition, peptide [1, 3] [min⁻¹] | rate constant for elimination of ataluren's inhibitory effect after RFC addition, tRNA [1, 3] [min⁻¹] | effect on Vmax values at high RFC concentration ([1]; 200, 500, 1000 μM ataluren) | KA, inhibition of pentapeptide release rate constants ([1]; measured by both smTIRF and fluorescence anisotropy, eRF1 32 nM, FIG. 9H) [µM] | KA, inhibition of tRNA release ([1]; smTIRF) [µM] | effects on the rates of peptide and tRNA release ([1]; steps after tRNA-peptide bond cleavage) | Photoincorporation yields into 18S A1195/ I: 18S 1151-1206 ([2]; 80S-IRES) [mole %] | Photoincorporation yields into 26S-A2669:A2672/ III: 26S 2638-2702 ([2]; 80S-IRES) [mole %] | Photoincorporation yields into 26S-A3093/ II: 26S 3069-3113 ([2]; 80S-IRES) [mole %] | Photoincorporation yields into RNAse H Fragment IV: 26S 1413-1476 ([2]; 80S.IRES) [%] |
| --- | --- | --- | --- | --- | --- | --- | --- | --- | --- | --- | --- | --- |
| O=C(O)c1cccc(-c2noc(-c3ccccc3F)n2)c1 [Ataluren] | apparent competitive inhibitor | did not change the CC value | 9.6 ± 2.6 | 10.8 ± 3.6 | little affected | 250 ± 20 | 180 ± 10 | no direct effects |  |  |  |  |
| [N-]=[N+]=Nc1ccc(-c2nc(-c3cccc(C(=O)O)c3)no2)cc1 [AzAt] |  |  |  |  |  |  |  |  | 1.03 ± 0.33 | 1.01 ± 0.12 | 0.50 ± 0.09 | 0.29 ± 0.11 |

— patent publication US20230235374A1, “High Throughput Assays for Detecting Translation Readthrough Inducers” (The Trustees of the University of Pennsylvania, priority 2021, published 2023)
